Assay results reported in US20220395443A1, “Oral Care Compositions and Methods” (Colgate-Palmolive Company, priority 2021, published 2022).
Read-outs that look alike come from different tables or passages of the source.

What was measured:
[1] = test system: Haemophilus parainfluenzae; assay: Growth of nitrate reducing species in optical density assay; assay type: cell-based; settings: for Effect on growth of Haemophilus parainfluenzae (in words): 1.5% KNO3 and 0.75% L-arginine alone or in combination, 26 h; for Optical Density (610 nm): pure culture, 0.75% L-arginine, 0.75% KNO3 (so in the source), or 1.5% KNO3 + 0.75% L-arginine by wt. of solution added, measured every two hours for 26 h, control 1.02
Method: The impact of 1.5% KNO3 and 0.75% L-arginine alone or in combination on the growth of one known nitrate reducing species, Haemophilus parainfluenzae, is studied. Pure cultures of each species are grown in the presence of the compounds. Note, the wt. % of the potassium nitrate and L-arginine is relative to the total weight of the solution added to the culture. The growth is monitored by measuring the optical density at 610 nm every two hours for 26 h.

salivary biofilms = assay: In vitro oral biofilm model, simple solutions: total NO3/NO2 in supernatant (colorimetric kit); assay type: cell-based, human; settings: for NO3/NO2 (nmole per sample): biofilm supernatant, 2 min treatments twice daily, 5 days, 3% KNO3 and/or 1.5% L-arginine, all with 1.7% TSPP, untreated 5.93; for NO3/NO2 output (in words): repeated treatment with simple solutions
Method: (§1) An in vitro model for oral biofilms is treated with either 3% KNO3 or 1.5% L-arginine alone or in combination as simple solutions. Whole human saliva was used to inoculate sterile hydroxyapatite discs held in a vertical position using a specially designed steel lid as indicated in Kumar et al. (2019). Biofilms in Human Diseases: Treatment and Control Nature, the contents of which are incorporated herein by reference in their entirety.
(§2) Following 6 h of inoculum, biofilms are treated for 2 min with simple solutions, rinsed and returned to fresh, filter-sterilized saliva. Biofilms were treated 2 times per day, with approximately 6 h between treatments for the subsequent 3 days. On the fifth day, biofilms are treated one time in the morning and then harvested approximately 3 h after treatment by sonication. Bacterial pellets are frozen and later subjected to DNA extraction and sequencing of the V3-V4 region of the 16 s ribosomal RNA subunit in order to identify the relative abundance of bacteria present in each sample to the genus level. The final supernatants were also retained, filter-sterilized and tested for total nitrate/nitrite concentrations to determine if any changes in nitrate production could be detected from the biofilm communities.
(§3) For these studies, all solutions were made fresh in dH2O and used within 1 h of being made. Solutions were prepared by weight to contain each of the following: 3% KNO3, 1.5% L-arginine, both by weight of the solution, or no active. Additionally, all solutions contained 1.7% TSPP for additional stabilization. Solution pH values were not adjusted before treatment.
At the end of the experiment, filter sterilized samples were tested for total NO3/NO2 using a colorimetric nitrate/nitrite assay kit (Sigma). Due to low sample volumes, samples were only tested for total NO3/NO2.

[2] = test system: Haemophilus parainfluenzae; assay: In vitro oral biofilm model, simple solutions: 16S V3-V4 sequencing; assay type: cell-based; settings: simple solutions: 3% KNO3 and/or 1.5% L-arginine; untreated (PBS) 0.14
Method: as §1, §2, §3
(§4) The composition of the microbiome of each sample is studied to assess the bacterial community shifts induced by treatment with: potassium nitrate alone, L-arginine alone, or potassium nitrate and L-arginine in combination.

[3] = test system: Neisseria flavescens subflava; assay: as above; assay type: cell-based; settings: simple solutions: 3% KNO3 and/or 1.5% L-arginine; untreated (PBS) 1.23
Method: as §1, §2, §3, §4

[4] = test system: Prevotella melaninogenica; assay: as above; assay type: cell-based; settings: simple solutions: 3% KNO3 and/or 1.5% L-arginine; untreated (PBS) 0.31
Method: as §1, §2, §3, §4

Rothia dentocariosa = assay: as above; assay type: cell-based
Method: as §1, §2, §3, §4

Veillonella parvula = assay: as above; assay type: cell-based; settings: simple solutions: 3% KNO3 and/or 1.5% L-arginine; untreated (PBS) 4.59
Method: as §1, §2, §3, §4

Oral biofilms = assay: Measurement of nitrite in oral biofilms after potassium nitrate challenge; assay type: cell-based, human; settings: treated twice a day for five days with simple solutions; total nitrite after five-minute challenge with 5% potassium nitrate; untreated 0.11
Method: Oral biofilms are grown on hydroxyapatite discs in saliva as discussed in the process detailed in Example 3. Over the course of five days, the biofilms receive treatment twice a day. Specifically, the biofilms receive treatment with samples containing simple solutions of water and 3% (by wt.) potassium nitrate and 5% (by wt.) arginine or a simple solution of water and 3% (by wt.) potassium nitrate alone. Following treatment, there is measurement of total nitrite (mg/L) in the biofilms following a five-minute challenge with 5% potassium nitrate.

## O=[N+]([O-])[O-].[K+] [KNO3, potassium nitrate]
[1]
  Effect on growth of Haemophilus parainfluenzae (in words): no effect on the growth
  Optical Density (610 nm): 0.99
Salivary biofilms
  NO3/NO2 (nmole per sample): 6.00 nmole per sample
  NO3/NO2 output (in words): small increases
[2]
  Relative abundance of Haemophilus parainfluenzae: 0.04 relative units of abundance
[3]
  Relative abundance of Neisseria flavescens subflava: 0.05 relative units of abundance
[4]
  Relative abundance of Prevotella melaninogenica: 0.67 relative units of abundance
Rothia dentocariosa
  Relative abundance of Rothia dentocariosa: 0 relative units of abundance
Veillonella parvula
  Relative abundance of Veillonella parvula: 0.78 relative units of abundance
Oral biofilms
  Biofilm Nitrite Measurement: 0.8 mg/L

## N=C(N)NCCC[C@H](N)C(=O)O [L-arginine]
[1]
  Effect on growth of Haemophilus parainfluenzae (in words): slightly reduce growth
  Optical Density (610 nm): 0.65
Salivary biofilms
  NO3/NO2 (nmole per sample): 6.01 nmole per sample
  NO3/NO2 output (in words): small increases
[2]
  Relative abundance of Haemophilus parainfluenzae: 0.83 relative units of abundance
[3]
  Relative abundance of Neisseria flavescens subflava: 0.54 relative units of abundance
[4]
  Relative abundance of Prevotella melaninogenica: 0.07 relative units of abundance
Rothia dentocariosa; simple solutions: 3% KNO3 and/or 1.5% L-arginine, untreated (PBS) 0.02
  Relative abundance of Rothia dentocariosa: 0.02 relative units of abundance
Veillonella parvula
  Relative abundance of Veillonella parvula: 3.28 relative units of abundance
